Test [1] has as its system beet armyworm (BAW; Spodoptera exigua: Lepidoptera). The test is described as follows: 96-well microtiter plate-based high throughput (HTS) diet bioassay on beet armyworm (BAW HTS). It counts as in vivo. Conditions: for BAW HTS: BAW eggs, 12 μg test compound per well, mortality at 6 d post-treatment, mortality class; for pest or weed control at 12 µg/well, 12 µg/well: Spodoptera exigua, 144 h, read-out: BAW HTS. Summed up:
(§1)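 Two diet formats. HTS: eggs on 96-well diet overlaid with 12 μg compound, held 6 d at 29° C in dark, mean mortality of six replicates. BAW 50: three to five second-instar larvae per well on diet dosed at 50 μg/cm^2, held six days at 25° C under 14:10 light-dark, mortality averaged across eight wells.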

Test [2] has the same test system. Nature of the test: 128-well diet tray assay on beet armyworm (BAW 50). It counts as in vivo. Conditions: for BAW 50 ug/cm2: 128-well diet tray assay, 50 μg/cm^2 of test compound on diet, second instar BAW larvae, mortality class; for pest or weed control at 50 µg/cm2, 50 µg/cm2: Spodoptera exigua, 144 h, read-out: BAW 50 ug/cm2. Summed up: as §1
The mark [3] stands for this setting: 96-well microtiter plate HTS diet assay.

The structures appear in SMILES notation. A value given as a limit tells only on which side of the number the result lay.

For the molecule `CO[C@@H]1[C@@H](OC)[C@H](C)O[C@@H](OC(=O)Nc2ccc(C3=NN(c4cccc(Cl)c4)CC3)cc2)[C@@H]1OC` [Compound 172], the “BAW HTS” value in test [1] (96-well HTS diet assay) was “B (either (1) the compound was tested and less than 50 percent mortality was observed or (2) the compound was not tested)”; in test [1] (setting [3]), “B (either (1) the compound was tested and less than 50 percent mortality was observed or (2) the compound was not tested)”. Further, the “BAW 50 ug/cm2” value in test [2] was “A (the compound was tested and at least 50 percent mortality was observed)”.

Regarding `CO[C@@H]1[C@@H](OC)[C@H](C)O[C@@H](OC(=O)Nc2ccc(-c3cn(-c4ccc(OC(F)(F)F)cc4)cn3)cc2)[C@@H]1OC` [Compound 173], the “BAW HTS” value in test [1] (96-well HTS diet assay) is “A (the compound was tested and at least 50 percent mortality was observed)”; in test [1] (setting [3]), “A (the compound was tested and at least 50 percent mortality was observed)”. Besides, the “BAW 50 ug/cm2” value in test [2] is “A (the compound was tested and at least 50 percent mortality was observed)”.

For `CO[C@@H]1[C@@H](OC)[C@H](C)O[C@H](OC(=O)Nc2ccc(-c3cn(-c4ccc(OC(F)(F)F)cc4)cn3)cc2)[C@@H]1OC` [Compound 174], the “BAW HTS” value in test [1] (96-well HTS diet assay) is “A (the compound was tested and at least 50 percent mortality was observed)”; in test [1] (setting [3]) it was “A (the compound was tested and at least 50 percent mortality was observed)”. For the same molecule, the “BAW 50 ug/cm2” value in test [2] was “A (the compound was tested and at least 50 percent mortality was observed)”.

Regarding `CCCCO[C@@H]1[C@@H](OC)[C@H](C)O[C@@H](OC(=O)Nc2ccc(-c3cn(-c4ccc(OC(F)(F)F)cc4)cn3)cc2)[C@@H]1OC` [Compound 175], the “BAW HTS” value is “A (the compound was tested and at least 50 percent mortality was observed)” in test [1] (96-well HTS diet assay); “A (the compound was tested and at least 50 percent mortality was observed)” in test [1] (setting [3]). Moreover, the “BAW 50 ug/cm2” value in test [2] is “A (the compound was tested and at least 50 percent mortality was observed)”.

In the case of `CO[C@@H]1[C@@H](OC)[C@H](C)O[C@@H](OC(=S)Nc2ccc(-c3cn(-c4ccc(OC(F)(F)F)cc4)cn3)cc2)[C@@H]1OC` [Compound 176], the “BAW HTS” value in test [1] (setting [3]) was “B (either (1) the compound was tested and less than 50 percent mortality was observed or (2) the compound was not tested)”. In test [1], the pest or weed control at 12 µg/well, 12 µg/well is less than 50%. Also, in test [2], the “BAW 50 ug/cm2” value was “A (the compound was tested and at least 50 percent mortality was observed)”; the pest or weed control at 50 µg/cm2, 50 µg/cm2 was greater than 50%.

Take `CCO[C@@H]1[C@@H](OC)[C@H](C)O[C@@H](SC(=O)Nc2ccc(-c3cn(-c4ccc(OC(F)(F)F)cc4)cn3)cc2)[C@@H]1OC` [Compound 177]: in test [1] (setting [3]), the “BAW HTS” value is “A (the compound was tested and at least 50 percent mortality was observed)”. In test [1], the pest or weed control at 12 µg/well, 12 µg/well is greater than 50%. In addition, in test [2], the “BAW 50 ug/cm2” value was “B (either (1) the compound was tested and less than 50 percent mortality was observed or (2) the compound was not tested)”; the pest or weed control at 50 µg/cm2, 50 µg/cm2 is less than 50%.

In the case of `CCO[C@@H]1[C@@H](OC)[C@H](C)O[C@@H](OC(=O)Nc2ccc(C3=NN(c4ccc(OC(F)(F)F)cc4)CC3)cc2)[C@@H]1OC` [Compound 178], the “BAW HTS” value was “B (either (1) the compound was tested and less than 50 percent mortality was observed or (2) the compound was not tested)” in test [1] (96-well HTS diet assay); “B (either (1) the compound was tested and less than 50 percent mortality was observed or (2) the compound was not tested)” in test [1] (setting [3]). In addition, the “BAW 50 ug/cm2” value in test [2] is “A (the compound was tested and at least 50 percent mortality was observed)”.

In the case of `CCO[C@@H]1[C@@H](OC)[C@H](C)O[C@@H](OC(=O)Nc2ccc(C3=NN(c4ccc(OC(F)(F)C(F)(F)F)cc4)CC3)cc2)[C@@H]1OC` [Compound 179], the “BAW HTS” value in test [1] (96-well HTS diet assay) is “B (either (1) the compound was tested and less than 50 percent mortality was observed or (2) the compound was not tested)”; in test [1] (setting [3]), “B (either (1) the compound was tested and less than 50 percent mortality was observed or (2) the compound was not tested)”. In test [2], the “BAW 50 ug/cm2” value is “A (the compound was tested and at least 50 percent mortality was observed)”.

Turning to `CCO[C@@H]1[C@@H](OC)[C@H](C)O[C@@H](OC(=O)Nc2ccc(C3=NOC(c4ccc(C(F)(F)F)cc4)C3)cc2)[C@@H]1OC` (stereo partly shown) [Compound 181], the “BAW HTS” value in test [1] (96-well HTS diet assay) was “A (the compound was tested and at least 50 percent mortality was observed)”; in test [1] (setting [3]) it was “A (the compound was tested and at least 50 percent mortality was observed)”. In test [2], the “BAW 50 ug/cm2” value is “A (the compound was tested and at least 50 percent mortality was observed)”.

In the case of `CCO[C@@H]1[C@@H](OC)[C@H](C)O[C@H](OC(=O)Nc2ccc(C3=NOC(c4ccc(C(F)(F)F)cc4)C3)cc2)[C@@H]1OC` (stereo partly shown) [Compound 182], the “BAW HTS” value in test [1] (96-well HTS diet assay) is “B (either (1) the compound was tested and less than 50 percent mortality was observed or (2) the compound was not tested)”; in test [1] (setting [3]) it was “B (either (1) the compound was tested and less than 50 percent mortality was observed or (2) the compound was not tested)”. In addition, the “BAW 50 ug/cm2” value in test [2] was “B (either (1) the compound was tested and less than 50 percent mortality was observed or (2) the compound was not tested)”.

In the case of `CCO[C@@H]1[C@@H](OC)[C@H](C)O[C@@H](OC(=O)Nc2ccc(C3CC(c4ccc(OC(F)(F)F)cc4)=NO3)cc2)[C@@H]1OC` (stereo partly shown) [Compound 183], the “BAW HTS” value in test [1] (96-well HTS diet assay) is “A (the compound was tested and at least 50 percent mortality was observed)”; in test [1] (setting [3]), “A (the compound was tested and at least 50 percent mortality was observed)”. Also, the “BAW 50 ug/cm2” value in test [2] was “A (the compound was tested and at least 50 percent mortality was observed)”.

As to `CCO[C@@H]1[C@@H](OC)[C@H](C)O[C@H](OC(=O)Nc2ccc(C3CC(c4ccc(OC(F)(F)F)cc4)=NO3)cc2)[C@@H]1OC` (stereo partly shown) [Compound 184], the “BAW HTS” value in test [1] (96-well HTS diet assay) is “B (either (1) the compound was tested and less than 50 percent mortality was observed or (2) the compound was not tested)”; in test [1] (setting [3]) it was “B (either (1) the compound was tested and less than 50 percent mortality was observed or (2) the compound was not tested)”. Besides, in test [2], the “BAW 50 ug/cm2” value is “B (either (1) the compound was tested and less than 50 percent mortality was observed or (2) the compound was not tested)”.

With `CCO[C@@H]1[C@@H](OC)[C@H](C)O[C@@H](OC(=O)Nc2ccc(C3=NCC(c4ccc(OC(F)(F)F)cc4)O3)cc2)[C@@H]1OC` (stereo partly shown) [Compound 185], the “BAW HTS” value in test [1] (96-well HTS diet assay) is “B (either (1) the compound was tested and less than 50 percent mortality was observed or (2) the compound was not tested)”; in test [1] (setting [3]), “B (either (1) the compound was tested and less than 50 percent mortality was observed or (2) the compound was not tested)”. In addition, the “BAW 50 ug/cm2” value in test [2] was “B (either (1) the compound was tested and less than 50 percent mortality was observed or (2) the compound was not tested)”.

`CCO[C@@H]1[C@@H](OC)[C@H](C)O[C@@H](OC(=O)Nc2ccc(C3COC(c4ccc(OC(F)(F)F)cc4)=N3)cc2)[C@@H]1OC` (stereo partly shown) [Compound 186]: the “BAW HTS” value is “B (either (1) the compound was tested and less than 50 percent mortality was observed or (2) the compound was not tested)” in test [1] (96-well HTS diet assay); “B (either (1) the compound was tested and less than 50 percent mortality was observed or (2) the compound was not tested)” in test [1] (setting [3]). The “BAW 50 ug/cm2” value in test [2] is “A (the compound was tested and at least 50 percent mortality was observed)”.

Turning to `CCO[C@@H]1[C@@H](OC)[C@H](C)O[C@@H](OC(=O)Nc2ccc(-n3ccn(-c4ccc(OC(F)(F)F)cc4)c3=O)cc2)[C@@H]1OC` [Compound 187], the “BAW HTS” value was “A (the compound was tested and at least 50 percent mortality was observed)” in test [1] (96-well HTS diet assay); “A (the compound was tested and at least 50 percent mortality was observed)” in test [1] (setting [3]). The “BAW 50 ug/cm2” value in test [2] is “A (the compound was tested and at least 50 percent mortality was observed)”.

Take `CCO[C@@H]1[C@@H](OC)[C@H](C)O[C@@H](OC(=O)Nc2ccc(N3CCN(c4ccc(OC(F)(F)F)cc4)C3=O)cc2)[C@@H]1OC` [Compound 188]: the “BAW HTS” value was “B (either (1) the compound was tested and less than 50 percent mortality was observed or (2) the compound was not tested)” in test [1] (96-well HTS diet assay); “B (either (1) the compound was tested and less than 50 percent mortality was observed or (2) the compound was not tested)” in test [1] (setting [3]). For the same molecule, the “BAW 50 ug/cm2” value in test [2] is “A (the compound was tested and at least 50 percent mortality was observed)”.

As for `CO[C@@H]1[C@@H](OC)[C@H](C)O[C@@H](OC(=O)Nc2ccc(-n3cnc(-c4ccc(C(F)(F)F)cc4)n3)cc2Cl)[C@@H]1OC` [Compound 189, {2-chloro-4-[3-(4-trifluoromethylphenyl)-[1,2,4]triazol-1-yl]-phenyl}-carbamic acid (2S,3R,4R,5S,6S)-3,4,5-trimethoxy-6-methyl-tetrahydropyran-2-yl ester], the “BAW HTS” value in test [1] (setting [3]) was “A (the compound was tested and at least 50 percent mortality was observed)”. For the same molecule, the pest or weed control at 12 µg/well, 12 µg/well in test [1] was greater than 50%. In test [2], the “BAW 50 ug/cm2” value was “A (the compound was tested and at least 50 percent mortality was observed)”; the pest or weed control at 50 µg/cm2, 50 µg/cm2 was greater than 50%.

With `CO[C@@H]1[C@@H](OC)[C@H](C)O[C@H](OC(=O)Nc2ccc(-n3cnc(-c4ccc(C(F)(F)F)cc4)n3)cc2Cl)[C@@H]1OC` [Compound 190, {2-chloro-4-[3-(4-trifluoromethylphenyl)-[1,2,4]triazol-1-yl]-phenyl}-carbamic acid (2R,3R,4R,5S,6S)-3,4,5-trimethoxy-6-methyl-tetrahydropyran-2-yl ester], in test [1] (setting [3]), the “BAW HTS” value is “A (the compound was tested and at least 50 percent mortality was observed)”. Also, the pest or weed control at 12 µg/well, 12 µg/well in test [1] is greater than 50%. For the same molecule, in test [2], the “BAW 50 ug/cm2” value was “A (the compound was tested and at least 50 percent mortality was observed)”; the pest or weed control at 50 µg/cm2, 50 µg/cm2 was greater than 50%.

Values taken from patent US8178658B2 (Dow AgroSciences, LLC, priority 2008, dated 2012).
